Assay results from patent US10253019B2, “Tank-binding kinase inhibitor compounds” (Gilead Sciences, Inc., priority 2014, dated 2019).
pIC50: −log10 of the molar value.

What was measured:
TBK1 = TBK1 (Homo sapiens (Human), UniProt Q9UHD2); test: TBK1 TR-FRET enzymatic assay; details: read-out: TBK1 IC50, 2x Km ATP, geometric mean of at least four determinations
Method: Enzymatic activity of IKKε and TBK1 was measured using a homogeneous time resolved fluorescence resonance energy transfer (TR-FRET) assay that monitors enzyme dependent phosphorylation of a biotinylated serine/threonine peptide substrate. […] TBK1 and IKKε were expressed and purified as full length recombinant proteins. Detection reagents for the assay were purchased from Cisbio. […] After an assay reaction time of 240 minutes at 25° C., reactions were terminated with EDTA.
All IC50 values represent geometric mean values of a minimum of four determinations.

IKKε = IKKε (Homo sapiens (Human), UniProt Q14164); test: IKKε TR-FRET enzymatic assay; assay type: biochemical; details: 2x Km ATP, geometric mean of at least four determinations, read-out: IKKe IC50
Chain of IKKε (Q14164 whole entry): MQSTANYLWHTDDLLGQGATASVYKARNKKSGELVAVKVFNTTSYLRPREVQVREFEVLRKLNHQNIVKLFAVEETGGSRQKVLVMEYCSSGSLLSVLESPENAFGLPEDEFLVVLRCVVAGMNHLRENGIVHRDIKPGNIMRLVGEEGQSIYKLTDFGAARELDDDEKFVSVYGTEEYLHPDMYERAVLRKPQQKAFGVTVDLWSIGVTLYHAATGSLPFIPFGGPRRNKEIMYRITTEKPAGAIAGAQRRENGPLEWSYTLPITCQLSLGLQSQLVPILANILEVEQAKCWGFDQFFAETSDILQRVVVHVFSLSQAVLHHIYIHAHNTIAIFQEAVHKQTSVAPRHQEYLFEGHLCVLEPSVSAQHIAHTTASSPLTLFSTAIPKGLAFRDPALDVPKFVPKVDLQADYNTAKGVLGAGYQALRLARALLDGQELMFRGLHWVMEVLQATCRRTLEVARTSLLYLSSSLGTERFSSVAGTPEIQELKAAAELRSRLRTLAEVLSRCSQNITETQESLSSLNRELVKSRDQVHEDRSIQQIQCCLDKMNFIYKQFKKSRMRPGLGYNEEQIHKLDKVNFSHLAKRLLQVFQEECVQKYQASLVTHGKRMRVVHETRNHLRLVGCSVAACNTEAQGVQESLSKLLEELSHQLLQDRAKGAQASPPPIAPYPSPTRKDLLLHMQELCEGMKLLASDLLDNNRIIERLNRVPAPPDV

hJAK2 = hJAK2 (Homo sapiens (Human), UniProt O60674); test: hJAK2 LANCE TR-FRET enzymatic assay; assay type: biochemical; details: read-out: JAK2 IC50
Chain of hJAK2 (O60674 whole entry): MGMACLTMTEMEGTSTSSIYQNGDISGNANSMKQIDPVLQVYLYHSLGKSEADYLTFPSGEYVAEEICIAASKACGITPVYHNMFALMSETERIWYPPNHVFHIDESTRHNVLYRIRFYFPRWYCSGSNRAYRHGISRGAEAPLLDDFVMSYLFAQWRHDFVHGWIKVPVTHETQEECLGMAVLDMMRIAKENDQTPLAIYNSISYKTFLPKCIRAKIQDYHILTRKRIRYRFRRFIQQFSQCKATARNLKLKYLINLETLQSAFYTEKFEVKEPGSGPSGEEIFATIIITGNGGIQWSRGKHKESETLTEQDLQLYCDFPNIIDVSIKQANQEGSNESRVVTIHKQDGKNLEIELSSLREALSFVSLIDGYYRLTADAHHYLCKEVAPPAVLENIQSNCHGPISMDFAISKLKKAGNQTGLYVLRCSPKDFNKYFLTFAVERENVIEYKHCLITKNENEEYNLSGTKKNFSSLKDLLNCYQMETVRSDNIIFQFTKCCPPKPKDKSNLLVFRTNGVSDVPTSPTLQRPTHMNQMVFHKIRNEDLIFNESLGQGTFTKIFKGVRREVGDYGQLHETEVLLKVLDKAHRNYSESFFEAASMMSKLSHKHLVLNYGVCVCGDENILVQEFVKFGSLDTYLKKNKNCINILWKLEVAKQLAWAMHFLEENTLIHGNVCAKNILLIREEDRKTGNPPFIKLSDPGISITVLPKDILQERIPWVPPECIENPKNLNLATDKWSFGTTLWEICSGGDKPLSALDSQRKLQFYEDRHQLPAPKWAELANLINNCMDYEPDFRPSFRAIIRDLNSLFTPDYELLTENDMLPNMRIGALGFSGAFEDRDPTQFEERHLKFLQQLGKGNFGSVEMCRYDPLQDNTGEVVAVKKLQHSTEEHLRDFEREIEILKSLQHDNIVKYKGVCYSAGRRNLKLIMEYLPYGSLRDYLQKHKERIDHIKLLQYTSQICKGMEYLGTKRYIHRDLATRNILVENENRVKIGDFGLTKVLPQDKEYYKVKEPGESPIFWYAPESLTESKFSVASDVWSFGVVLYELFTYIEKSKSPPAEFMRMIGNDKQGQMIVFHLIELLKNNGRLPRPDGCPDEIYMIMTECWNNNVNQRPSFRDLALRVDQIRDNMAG

Chain of TBK1 (Q9UHD2 whole entry): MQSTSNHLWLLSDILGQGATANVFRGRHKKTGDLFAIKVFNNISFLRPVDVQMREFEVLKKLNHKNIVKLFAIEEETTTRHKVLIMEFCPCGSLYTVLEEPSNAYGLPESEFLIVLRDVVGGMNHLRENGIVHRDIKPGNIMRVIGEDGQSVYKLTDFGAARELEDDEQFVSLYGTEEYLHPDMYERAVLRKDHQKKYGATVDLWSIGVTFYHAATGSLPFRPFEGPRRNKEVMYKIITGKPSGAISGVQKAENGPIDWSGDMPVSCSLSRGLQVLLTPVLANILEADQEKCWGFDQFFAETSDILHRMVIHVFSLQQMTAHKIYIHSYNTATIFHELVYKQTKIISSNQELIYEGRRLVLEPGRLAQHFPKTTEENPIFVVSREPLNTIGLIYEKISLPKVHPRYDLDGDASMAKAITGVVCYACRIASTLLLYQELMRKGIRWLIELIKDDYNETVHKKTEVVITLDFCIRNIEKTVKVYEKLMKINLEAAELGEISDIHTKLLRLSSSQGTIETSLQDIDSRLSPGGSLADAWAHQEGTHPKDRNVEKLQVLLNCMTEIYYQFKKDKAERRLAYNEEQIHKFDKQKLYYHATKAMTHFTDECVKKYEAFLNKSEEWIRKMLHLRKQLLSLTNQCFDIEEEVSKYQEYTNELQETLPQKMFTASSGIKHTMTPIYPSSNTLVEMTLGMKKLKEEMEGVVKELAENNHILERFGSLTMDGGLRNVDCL

| Compound | pIC50 (TBK1) | pIC50 (IKKε) | pIC50 (hJAK2) |
| --- | --- | --- | --- |
| 2-(((3R,4S)-1-((R)-4,4-difluoropyrrolidine-2-carbonyl)-3-fluoropiperidin-4-yl)oxy)-5-(4-((4-(4-(oxetan-3-yl)piperazin-1-yl)phenyl)amino)-1,3,5-triazin-2-yl)benzonitrile [Example 132] | 7.60 | 7.29 | 6.00 |
| 2-(((3R,4S)-3-fluoro-1-((S)-pyrrolidine-2-carbonyl)piperidin-4-yl)oxy)-5-(4-((4-(4-(oxetan-3-yl)piperazin-1-yl)phenyl)amino)-1,3,5-triazin-2-yl)benzonitrile [Example 133] |  | 6.00 | 6.00 |
| N#Cc1cc(-c2ncnc(Nc3cnn(C(F)F)c3)n2)ccc1O[C@H]1CCNC[C@H]1F [Example 453, 5-(4-((1-(difluoromethyl)-1H-pyrazol-4-yl)amino)-1,3,5-triazin-2-yl)-2-(((3R,4S)-3-fluoropiperidin-4-yl)oxy)benzonitrile] | 6.44 |  |  |
